Measured values: ChEMBL document CHEMBL3856280, “Targeting the HSP60/10 chaperonin systems of Trypanosoma brucei as a strategy for treating African sleeping sickness” (Bioorg Med Chem Lett, 2016)
pEC50, pIC50: −log10 of the molar value.

Assays:
[1] = tested on: Trypanosoma brucei brucei; experiment: Antitrypanosomal activity against Trypanosoma brucei brucei Lister 427 VSG 221 [TetR T7RNAP] transgenic bloodstream forms assessed as reduction in cell viability after 48 hrs by alamar blue assay; format: functional; conditions: Lister 427 VSG 221, 48 h
E. coli GroEL/ES [2] = target: T1, E. coli GroEL/ES (Escherichia coli, UniProt P0A6F5); experiment: Inhibition of Escherichia coli GroEL/GroES expressed in Escherichia coli DH5alpha/BL21 (DE3) assessed as inhibition of denatured MDH refolding preincubated for 10 mins followed by ATP addition measured after 20 to 40 mins by fluorescence based assay
T1 sequence (P0A6F5 whole entry, looked up): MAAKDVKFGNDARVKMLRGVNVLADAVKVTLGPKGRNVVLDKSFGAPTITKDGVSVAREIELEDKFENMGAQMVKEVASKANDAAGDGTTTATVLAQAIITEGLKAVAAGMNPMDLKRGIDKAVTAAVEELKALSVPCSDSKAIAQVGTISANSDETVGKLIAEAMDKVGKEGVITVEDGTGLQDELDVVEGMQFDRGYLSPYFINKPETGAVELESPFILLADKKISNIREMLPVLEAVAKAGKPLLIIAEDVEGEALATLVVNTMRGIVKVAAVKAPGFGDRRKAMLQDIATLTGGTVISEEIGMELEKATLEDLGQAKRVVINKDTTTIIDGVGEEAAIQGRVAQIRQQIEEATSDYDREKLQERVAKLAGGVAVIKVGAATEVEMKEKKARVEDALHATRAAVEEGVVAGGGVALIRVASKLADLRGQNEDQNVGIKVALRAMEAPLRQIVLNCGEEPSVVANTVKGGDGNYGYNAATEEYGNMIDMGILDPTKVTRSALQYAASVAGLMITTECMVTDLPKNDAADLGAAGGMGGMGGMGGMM

HSP60/HSP10 [3] = target: T2, HSP60/HSP10 (Homo sapiens, UniProt P10809); experiment: Inhibition of human mitochondrial HSP60/HSP10 expressed in Escherichia coli DH5alpha/BL21 (DE3) assessed as inhibition of denatured MDH refolding preincubated for 10 mins followed by ATP addition measured after 40 to 60 mins by fluorescence based assay
T2 sequence (P10809 whole entry): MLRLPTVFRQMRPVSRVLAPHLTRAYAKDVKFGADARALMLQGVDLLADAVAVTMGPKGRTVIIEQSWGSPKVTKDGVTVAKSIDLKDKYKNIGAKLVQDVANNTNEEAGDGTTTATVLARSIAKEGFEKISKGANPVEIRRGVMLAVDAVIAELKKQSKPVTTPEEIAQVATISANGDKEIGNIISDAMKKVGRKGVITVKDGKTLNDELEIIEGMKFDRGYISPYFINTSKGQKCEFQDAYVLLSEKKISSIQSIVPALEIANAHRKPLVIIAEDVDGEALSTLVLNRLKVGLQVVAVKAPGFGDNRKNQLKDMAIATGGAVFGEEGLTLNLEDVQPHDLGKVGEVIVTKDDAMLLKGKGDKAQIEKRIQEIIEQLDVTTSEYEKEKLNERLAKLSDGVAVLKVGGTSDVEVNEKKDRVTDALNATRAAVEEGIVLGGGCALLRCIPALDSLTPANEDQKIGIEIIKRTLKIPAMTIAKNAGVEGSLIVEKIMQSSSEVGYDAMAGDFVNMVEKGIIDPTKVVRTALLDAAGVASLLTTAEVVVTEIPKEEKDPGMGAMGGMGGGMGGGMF
T2 sequence (P61604 whole entry, further chain): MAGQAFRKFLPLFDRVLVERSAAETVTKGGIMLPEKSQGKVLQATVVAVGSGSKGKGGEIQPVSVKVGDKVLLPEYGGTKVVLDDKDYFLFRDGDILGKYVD

E. coli GroEL/ES [4] = target: T1, E. coli GroEL/ES; experiment: Inhibition of Escherichia coli GroEL/GroES-ATPase activity expressed in Escherichia coli DH5alpha/BL21 (DE3) assessed as inhibition of denatured MDH refolding preincubated for 10 mins followed by ATP addition measured after 20 to 40 mins by malachite green dye based fluorescence assay
HSP60/HSP10 [5] = target: T2, HSP60/HSP10; experiment: Inhibition of human mitochondrial HSP60/HSP10-ATPase activity expressed in Escherichia coli DH5alpha/BL21 (DE3) assessed as inhibition of denatured MDH refolding preincubated for 10 mins followed by ATP addition measured after 40 to 60 mins by malachite green dye based fluorescence assay
[6] = Cytotoxicity against human THLE3 cells assessed as reduction in cell viability after 48 hrs by alamar blue assay; format: toxicity, cell-based
[7] = Cytotoxicity against HEK293 cells assessed as reduction in cell viability after 48 hrs by alamar blue assay; format: toxicity, cell-based; conditions: human
[8] = Inhibition of pig heart native MDH reporter reaction after 20 to 40 mins by fluorescence based assay; design: species or system Sus scrofa

SMILES	pEC50 [1]	pIC50 (E. coli GroEL/ES [2])	pIC50 (HSP60/HSP10 [3])	pIC50 (E. coli GroEL/ES [4])	pIC50 (HSP60/HSP10 [5])	EC50 at 48 h [6] [µM]	EC50 at 48 h [7] [µM]	pIC50 [8]
N#Cc1ccc(S(=O)(=O)Nc2ccc(-c3nc4cc(NS(=O)(=O)c5ccc(C#N)cc5)ccc4o3)cc2)cc1	4.80	4.43	4.19	< 3.60	< 3.60	79	45	< 4.20
O=C(O)c1cccc(S(=O)(=O)Nc2ccc(-c3nc4cc(NS(=O)(=O)c5cccc(C(=O)O)c5)ccc4o3)cc2)c1	< 4.38	4.21	4.09	< 3.60	< 3.60	> 100	> 100	4.39
N#Cc1ccccc1S(=O)(=O)Nc1ccc(-c2nc3cc(NS(=O)(=O)c4ccccc4C#N)ccc3o2)cc1	4.64	4.49	4.07	< 3.60	3.71	93	74	< 4.20
O=C(O)c1ccccc1S(=O)(=O)Nc1ccc(-c2nc3cc(NS(=O)(=O)c4ccccc4C(=O)O)ccc3o2)cc1	< 4.38	< 4.00	< 4.00	< 3.60	< 3.60	> 100	> 100	< 4.20
O=[N+]([O-])c1cccc(S(=O)(=O)Nc2ccc(-c3nc4cc(NS(=O)(=O)c5cccc([N+](=O)[O-])c5)ccc4o3)cc2)c1	4.96	4.96	4.22	< 3.60	< 3.60	37	46	< 4.20
COC(=O)c1cccc(S(=O)(=O)Nc2ccc(-c3nc4cc(NS(=O)(=O)c5cccc(C(=O)OC)c5)ccc4o3)cc2)c1	< 4.38	4.96	4.02	< 3.60	< 3.60	49	> 100	< 4.20
N#Cc1cccc(S(=O)(=O)Nc2ccc(-c3nc4cc(NS(=O)(=O)c5cccc(C#N)c5)ccc4o3)cc2)c1	4.41	5.12	4.04	5.39	< 3.60	91	45	< 4.20
O=S(=O)(Nc1ccc(-c2nc3cc(NS(=O)(=O)c4cccc(O)c4)ccc3o2)cc1)c1cccc(O)c1	5.05	6.05	4.72	6.10	4.21	37	36	4.33
Nc1ccc(S(=O)(=O)Nc2ccc(-c3nc4cc(NS(=O)(=O)c5ccc(N)cc5)ccc4o3)cc2)cc1	4.66	5.85	4.17	5.77	3.65	38	59	< 4.20
COC(=O)c1ccc(S(=O)(=O)Nc2ccc(-c3nc4cc(NS(=O)(=O)c5ccc(C(=O)OC)cc5)ccc4o3)cc2)cc1	4.64	4.59	4.06	4.04	< 3.60	> 100	> 100	< 4.20
